# What was measured:
# HeLa cells = assay: HDAC Fluorescent Activity Assay (Fluor de Lys) in HeLa cells; assay type: cell-based, human; conditions: 300 nM
# Experimental: (§1) The HDAC Fluorescent Activity Assay (Enzo Life Science, Farmingdale, NY) was used to measure HDAC inhibition in HeLa cells in a 96-well format using Trichostatin A as the positive control per the manufacturer's protocol. This assay is based on the Fluor de Lys (Fluorogenic Histone Deacetylase Lysyl (FDL)) Substrate/Developer. The procedure was as follows: the test compounds FK228, JMA26, and JMA33 were added to HeLa cells along with the FDL substrate to allow intracellular drug activation then fluorescence levels were read on the fluorometer at 440 nm (CytoFluor II, PerSeptive Biosystems, Farmingdale, NY). The drug concentrations tested were based on the amount required for HbF induction in primary cells. Data was reported as the mean ± standard deviation (SD) for at least five replicates.
# (§2) To ascertain the mechanism of HbF induction by the lead compounds, we performed an in vivo assay to investigate the ability of JMA26 and JMA33 to act as HDAC inhibitors. The HDAC Fluorescent Activity Assay designed to measure HDAC activity in HeLa cells was completed in a 96-well format. The assay is based on the fact that the Fluor de Lys substrate is deacetylated by HDACs to generate a fluorescent readout. TSA (0.5 to 1000 nM) was used to establish the assay in HeLa cells, showing about 80% HDAC inhibition in our system (Figure 4(a)).
# (§3) Figure 4 HDAC inhibition assay. The HDAC Fluorescent Activity Assay was used to measure HDAC inhibition in HeLa cells (See Section 2). Compounds and FDL substrate were added to HeLa cells to allow drug activation in vivo then fluorescence levels were quantified on the fluorometer at 440 nm. (a) Trichostatin A (TSA) was used as the control. (b) Inhibition studies were conducted for FK228 showing maximal HDAC inhibition at the 300 nM concentration. (c) Similar studies were performed for JMA33 and JMA26. The data are reported as the means ± SEM.
# [1] = tested on: HDAC activity in HeLa cells; assay: as above; assay type: cell-based, human; conditions: 300 nM; HeLa cells, Fluor de Lys substrate; maximal inhibition
# Experimental: as §1, §2, §3
# [2] = tested on: γ-promoter activity in GM979 stable line; conditions: μLCRβprRluc AγprFluc GM979 stable line; cited from earlier work
# From the text: Many published studies have shown that primary erythroid cells remain the best system to confirm HbF-inducing agents and to serve as a predictor of efficacy in vivo. Human burst forming units—erythroid cells in clonogenic assays or erythroid progenitors grown in liquid culture [39, 41]—have been used to evaluate putative HbF inducers. However, these assays are not easily adaptable to large-scale drug screening, thus immortalized cell lines have been investigated for this purpose.
# [3] = tested on: HbF-positive primary erythroid progenitors; assay: Anti-HbF FITC immunostaining of primary erythroid progenitors; assay type: cell-based, human; conditions: anti-HbF FITC / DAPI, 500 cells counted; 15.5% HbF-positive at baseline in untreated cells
# Experimental: (§4) The two-phase liquid culture system was established as previously published by Fibach et al. using buffy coat mononuclear cells, purchased from Carter Blood Care (Fort Worth, TX) in accordance with the guidelines of the Institutional Review Board at the University of Texas at Dallas. During phase 1, cells were grown in IMDM medium with 30% fetal bovine serum and 50 ng/mL each of the granulocyte-monocyte colony-stimulating factor, Interleukin-3, and stem cell factor. Subsequently, phase 2 was initiated on day 7 with the addition of erythropoietin (2 U/mL) and stem cell factor (50 ng/mL). The cells were treated on Day 11 with the different test compounds and harvested on Day 14 (72 hr incubation).
# Primary erythroid progenitor cytospin cell preparations were fixed with 4% paraformaldehyde in phosphate buffered saline for 15 min, washed, and then permeabilized with 0.3% Trition-100 solution for 10 min. Cells were then blocked in a 5% bovine serum albumin solution and immunostaining performed at 4°C overnight with anti-HbF fluorescein isothiocyanate (FITC) conjugated antibody (Bethyl Laboratories Inc., TX). Cell nuclei were stained with mounting medium containing 4′,6-diamidino-2-phenylindole (DAPI; Santa Cruz Biotechnology, CA). Primary cells were photographed with an Olympus BX 51 phase contrast epifluorescent microscope equipped with Hoffman Modulation optics. Phase-contrast images were recorded with a CCD camera (1/100 sec exposure) and fluorescence images were photographed through 485/520 nm emission filter. The percent of HbF positive cells was calculated by dividing the number of FITC positive cells by total cells (DAPI positive).
# Figure 3 JMA33 and JMA26 induce HbF in primary erythroid cells. (a) Day 11 erythroid progenitors were treated for 48 hr with the controls agents and the FK228 analogues shown and then analyzed by RT-qPCR. Untreated cells (UT) were used as a control and normalized to one. Data were calculated as the means ± SEM. […] The images generated were used to count 500 DAPI positive cells and the %FITC positive cells were calculated accordingly.
# [4] = tested on: γ-globin transcription in primary erythroid progenitors; assay: RT-qPCR of γ-globin mRNA in primary erythroid progenitors (two-phase liquid culture); assay type: cell-based, human; conditions: Day 11 erythroid progenitors treated 48 hr (Figure 3 legend), untreated normalized to one
# Experimental: as §4
# Total RNA was isolated from samples using RNA Stat-60 (TEL-TEST “B” Inc., Friendswood, TX) and used for RT-qPCR analysis as previously published. […] The globin mRNA levels were calculated as a ratio of GAPDH (γ/GAPDH, β/GAPDH), and the γ/β-globin mRNA ratio was calculated by dividing γ/GAPDH by β/GAPDH.
# Figure 3 JMA33 and JMA26 induce HbF in primary erythroid cells. (a) Day 11 erythroid progenitors were treated for 48 hr with the controls agents and the FK228 analogues shown and then analyzed by RT-qPCR. […] Data were calculated as the means ± SEM. […] The images generated were used to count 500 DAPI positive cells and the %FITC positive cells were calculated accordingly.
substance,measurement,setting,value
FK228,cell toxicity,HeLa cells,marked cell toxicity
same,HDAC inhibition,[1],about 85%
same,concentration inducing γ-promoter activity,[2],1 nM
same,increase in HbF-positive cells,[3],3.5 fold
same,induction of γ-globin transcription at the mRNA level,[4],≤ 3.2 fold

# — PMC3359661, “FK228 Analogues Induce Fetal Hemoglobin in Human Erythroid Progenitors” (Anemia, 2012)
